Source: patent publication US10112937B2, “P2X7 modulators and methods of use” (Janssen Pharmaceutica NV, priority 2013, dated 2018)

Target: human P2X7 (Homo sapiens (Human), UniProt Q99572)
Experiment: P2X7 antagonism in human PBMCs (IL-1β release after LPS + Bz-ATP, ELISA)
Type: cell-based
Details: human PBMCs; for PBMC 1 μM (% control): test compound 1 μM
[1] = 10 μM test compound, LPS + Bz-ATP

human P2X7, sequence (Q99572 whole entry): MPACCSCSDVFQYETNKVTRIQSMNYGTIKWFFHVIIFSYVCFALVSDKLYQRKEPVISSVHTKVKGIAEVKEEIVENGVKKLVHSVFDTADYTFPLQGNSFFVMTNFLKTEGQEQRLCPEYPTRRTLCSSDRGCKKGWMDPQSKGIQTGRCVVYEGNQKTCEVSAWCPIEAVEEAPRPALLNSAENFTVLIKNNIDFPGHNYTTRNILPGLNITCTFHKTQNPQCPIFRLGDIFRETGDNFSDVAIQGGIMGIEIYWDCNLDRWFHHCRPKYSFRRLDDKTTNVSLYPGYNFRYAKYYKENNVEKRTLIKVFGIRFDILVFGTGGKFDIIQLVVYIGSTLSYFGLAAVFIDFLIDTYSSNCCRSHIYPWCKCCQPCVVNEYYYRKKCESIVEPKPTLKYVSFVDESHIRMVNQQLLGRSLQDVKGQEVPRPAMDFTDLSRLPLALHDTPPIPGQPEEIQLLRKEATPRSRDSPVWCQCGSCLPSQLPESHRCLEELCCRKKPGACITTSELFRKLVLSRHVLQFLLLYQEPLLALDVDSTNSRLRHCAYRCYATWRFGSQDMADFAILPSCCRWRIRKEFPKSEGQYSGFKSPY

Structure (SMILES)	PBMC 10 μM (% control) (test compound 10 μM)	PBMC 10 μM (% control) [1] [% control]	also measured
C[C@@H]1Cc2c(nnn2-c2ccn[nH]2)[C@H](C)N1C(=O)c1cccc(C(F)(F)F)c1Cl [Example 309, (2-chloro-3-(trifluoromethyl)phenyl)((4S,6R)-4,6-dimethyl-1-(1H-pyrazol-5-yl)-6,7-dihydro-1H-[1,2,3]triazolo[4,5-c]pyridin-5(4H)-yl)methanone]	1.4		
O=C(c1cccc(C(F)(F)F)c1Cl)N1CCc2c(ncn2-c2ccc(F)cn2)C1 [Example 315, (2-chloro-3-(trifluoromethyl)phenyl)(1-(5-fluoropyridin-2-yl)-6,7-dihydro-1H-imidazo[4,5-c]pyridin-5(4H)-yl)methanone]	8.8		
C[C@H]1Cc2c(nnn2-c2ccn[nH]2)[C@H](C)N1C(=O)c1cccc(C(F)(F)F)c1Cl [Example 319, (2-chloro-3-(trifluoromethyl)phenyl)((4S,6S)-4,6-dimethyl-1-(1H-pyrazol-5-yl)-6,7-dihydro-1H-[1,2,3]triazolo[4,5-c]pyridin-5(4H)-yl)methanone]	−6.8		
Cn1nc2c(c1-c1ccc(F)cc1)CCN(C(=O)c1cccc(Cl)c1Cl)C2 [Example 326, (2,3-dichlorophenyl)(3-(4-fluorophenyl)-2-methyl-4,5-dihydro-2H-pyrazolo[3,4-c]pyridin-6(7H)-yl)methanone]			PBMC 1 μM (% control): 92.0 % control
Cn1nc2c(c1-c1ccncc1)CCN(C(=O)c1cccc(Cl)c1Cl)C2 [Example 328, (2,3-dichlorophenyl)(2-methyl-3-(pyridin-4-yl)-4,5-dihydro-2H-pyrazolo[3,4-c]pyridin-6(7H)-yl)methanone]			PBMC 1 μM (% control): 88.0 % control
Cc1nc2c(n1-c1ccccc1)CCN(C(=O)c1cccc(Cl)c1Cl)C2 [Example 331, (2,3-dichlorophenyl)(2-methyl-1-phenyl-6,7-dihydro-1H-imidazo[4,5-c]pyridin-5(4H)-yl)methanone]	−11.0		
CCc1nc2c(n1-c1ccccc1)CCN(C(=O)c1cccc(Cl)c1Cl)C2 [Example 332, (2,3-dichlorophenyl)(2-ethyl-1-phenyl-6,7-dihydro-1H-imidazo[4,5-c]pyridin-5(4H)-yl)methanone]	−9.5		
C[C@H]1c2nnn(-c3cncnc3)c2CCN1C(=O)c1cccc(C(F)(F)F)c1Cl [Example 333, (S)-(2-chloro-3-(trifluoromethyl)phenyl)(4-methyl-1-(pyrimidin-5-yl)-6,7-dihydro-1H-[1,2,3]triazolo[4,5-c]pyridin-5(4H)-yl)methanone]	6.9		
Cc1ccc(-n2nnc3c2CCN(C(=O)c2cccc(Cl)c2Cl)C3C)nc1 (stereo not drawn) [Example 336, (2,3-dichlorophenyl)(4-methyl-1-(5-methylpyridin-2-yl)-6,7-dihydro-1H-[1,2,3]triazolo[4,5-c]pyridin-5(4H)-yl)methanone]	−0.5		
Cc1ccnc(-n2nnc3c2CCN(C(=O)c2ccnc(C(F)(F)F)c2Cl)C3C)c1 (stereo not drawn) [Example 358, (3-chloro-2-(trifluoromethyl)pyridin-4-yl)(4-methyl-1-(4-methylpyridin-2-yl)-6,7-dihydro-1H-[1,2,3]triazolo[4,5-c]pyridin-5(4H)-yl)methanone]	−0.7		
Cc1cc(-n2nnc3c2CCN(C(=O)c2ccnc(C(F)(F)F)c2F)C3C)ncn1 (stereo not drawn) [Example 397, (3-fluoro-2-(trifluoromethyl)pyridin-4-yl)(4-methyl-1-(6-methylpyrimidin-4-yl)-6,7-dihydro-1H-[1,2,3]triazolo[4,5-c]pyridin-5(4H)-yl)methanone]	64.7		
Cc1nccc(-n2nnc3c2CCN(C(=O)c2ccnc(C(F)(F)F)c2F)C3C)n1 (stereo not drawn) [Example 401, (3-fluoro-2-(trifluoromethyl)pyridin-4-yl)(4-methyl-1-(2-methylpyrimidin-4-yl)-6,7-dihydro-1H-[1,2,3]triazolo[4,5-c]pyridin-5(4H)-yl)methanone]	82.0		
CCn1ccc(-n2nnc3c2C[C@H](C)N(C(=O)c2cccc(C(F)(F)F)c2Cl)C3)n1 [Example 404, (S)-(2-chloro-3-(trifluoromethyl)phenyl)(1-(1-ethyl-1H-pyrazol-3-yl)-6-methyl-6,7-dihydro-1H-[1,2,3]triazolo[4,5-c]pyridin-5(4H)-yl)methanone]		−3.1	
CCn1nccc1-n1nnc2c1C[C@H](C)N(C(=O)c1cccc(C(F)(F)F)c1Cl)C2 [Example 406, (S)-(2-chloro-3-(trifluoromethyl)phenyl)(1-(1-ethyl-1H-pyrazol-5-yl)-6-methyl-6,7-dihydro-1H-[1,2,3]triazolo[4,5-c]pyridin-5(4H)-yl)methanone]		−3.6	
CCn1nccc1-n1nnc2c1CCN(C(=O)c1cccc(C(F)(F)F)c1Cl)[C@H]2C [Example 407, (S)-(2-chloro-3-(trifluoromethyl)phenyl)(1-(1-ethyl-1H-pyrazol-5-yl)-4-methyl-6,7-dihydro-1H-[1,2,3]triazolo[4,5-c]pyridin-5(4H)-yl)methanone]		77.4	
CCn1ccc(-n2nnc3c2C[C@H](C)N(C(=O)c2ccnc(C(F)(F)F)c2F)C3)n1 [Example 408, (S)-(1-(1-ethyl-1H-pyrazol-3-yl)-6-methyl-6,7-dihydro-1H-[1,2,3]triazolo[4,5-c]pyridin-5(4H)-yl)(3-fluoro-2-(trifluoromethyl)pyridin-4-yl)methanone]		53.6	
CCn1ccc(-n2nnc3c2C[C@H](C)N(C(=O)c2ccnc(C(F)(F)F)c2Cl)C3)n1 [Example 410, (S)-(3-chloro-2-(trifluoromethyl)pyridin-4-yl)(1-(1-ethyl-1H-pyrazol-3-yl)-6-methyl-6,7-dihydro-1H-[1,2,3]triazolo[4,5-c]pyridin-5(4H)-yl)methanone]		−1.5	
CCn1ccc(-n2nnc3c2CCN(C(=O)c2ccnc(C(F)(F)F)c2Cl)[C@H]3C)n1 [Example 411, (S)-(3-chloro-2-(trifluoromethyl)pyridin-4-yl)(1-(1-ethyl-1H-pyrazol-3-yl)-4-methyl-6,7-dihydro-1H-[1,2,3]triazolo[4,5-c]pyridin-5(4H)-yl)methanone]		69.6	
CC(C)n1ccc(-n2nnc3c2CCN(C(=O)c2cccc(C(F)(F)F)c2Cl)[C@H]3C)n1 [Example 413, (S)-(2-chloro-3-(trifluoromethyl)phenyl)(1-(1-isopropyl-1H-pyrazol-3-yl)-4-methyl-6,7-dihydro-1H-[1,2,3]triazolo[4,5-c]pyridin-5(4H)-yl)methanone]		68.5	
CC(C)n1ccc(-n2nnc3c2CCN(C(=O)c2ccnc(C(F)(F)F)c2Cl)[C@H]3C)n1 [Example 417, (S)-(3-chloro-2-(trifluoromethyl)pyridin-4-yl)(1-(1-isopropyl-1H-pyrazol-3-yl)-4-methyl-6,7-dihydro-1H-[1,2,3]triazolo[4,5-c]pyridin-5(4H)-yl)methanone]		112.2	
CC(C)n1ccc(-n2nnc3c2C[C@H](C)N(C(=O)c2ccnc(C(F)(F)F)c2F)C3)n1 [Example 418, (S)-(3-fluoro-2-(trifluoromethyl)pyridin-4-yl)(1-(1-isopropyl-1H-pyrazol-3-yl)-6-methyl-6,7-dihydro-1H-[1,2,3]triazolo[4,5-c]pyridin-5(4H)-yl)methanone]		97.6	
